Experiments:
[1] = system: S6 kinase (S6K1) phosphorylation in C2C12 cells; assay: Phosphorylation of the S6 kinase in C2C12 cells (ELISA pS6K T389), protein synthesis; type: cell-based, mouse; details: Mus musculus, C2C12, 2 h; for activity at 10 µM: read-out: Protein synthesis (percentage increase in S6K phosphorylation in muscle cells); for activity: test compounds and 20E reference (10 μM), read-out: S6K1 phosphorylation level
Experimental: After several experiments in which the C2C12 cells differentiated into myotubes were incubated in the presence of IGF-1 or 20E for 2 h 30 or 6 h, two screening tests were developed. Thus, the phosphorylation of the S6 protein kinase and the expression of the myostatin gene were studied in order to determine their modulation by a growth hormone or an ecdysone and to characterize these modulations from a statistical point of view.
The C2C12 myoblast cells (ATCC CRL-1772) are seeded into 6-well plates at a density of 170 000 cells per well and cultured in a DMEM medium containing glucose in a proportion of 4.5 g/l and supplemented with fetal calf serum (10%) and with antibiotics (penicillin and streptomycin). Forty-eight hours later, the myoblasts are induced to differentiate by partial serum depletion (2% instead of 10%) for 5 days. The cells are then placed in a medium which is glucose-depleted (DMEM containing 1 g/l of glucose) and serum-free in the presence of the test molecules or of the references (100 ng/ml IGF-1 or 10 μM 20E) for 2 h. At the end of the experiment, the cells are lysed in a commercial lysis buffer (Invitrogen FNN0011) supplemented with a commercial mixture of anti-proteases (Roche 05056489001). After centrifugation, the cytoplasmic fraction containing the soluble proteins is kept and the protein concentration is determined using a commercial kit (Biorad 500-0114), the principle of which is composed of assaying by the Lowry method. The assaying of the S6 kinase phosphorylation is carried out using a commercial ELISA (Enzyme Linked ImmunoSorbent Assay) kit (Cell signaling 7063). Briefly, 50 μg of protein lysate are deposited in the wells of a 96-well microplate and incubated overnight at 4° C. with the solution of antigen specific for the pS6 kinase threonine 389 antibody. The binding of the antigen to the bottom of the wells is done electrostatically. The solution of antibody to be assayed (pS6K T389) is then incubated at 37° C. in the wells for 2 hours. The antibodies bind specifically to the antigen. The wells are then washed with washing buffer in order to remove the antigen-specific primary antibodies to be assayed which are in excess. The third step consists in binding the detection antibody. The solution of detection antibodies is incubated at 37° C. in the wells for 1 hour. The wells are then washed in order to remove the excess detection antibodies. It should be noted that the detection antibodies are coupled to an enzyme which, in the presence of its substrate, converts it into a reaction product that can be detected and measured by virtue of the appearance of a coloration. […] The appearance of a blue coloration in the substrate indicates the presence of the antibody to be assayed. In order to prevent any saturation phenomenon, a stop solution (generally containing […]) is added and brings about a change in coloration, which goes from blue to yellow. The strength thereof is proportional to the amount of enzyme present and thus to the concentration of antibody sought. The strength of the signal is measured using spectrophotometry at a wavelength of 450 nm.

[2] = system: Soleus muscle of C57BL/6 mice subjected to a high-fat diet; assay: Mice subjected to a high-fat diet: weight and amount of proteins of the Soleus muscle; type: in vivo, C57BL/6J mice; details: 5 mg/kg orally; high-fat diet for 6 weeks; compared with the control group; FIG. 3B
Experimental: The 20E as comparative compound and the compounds according to the invention (Nos. 51 and 93) were administered orally, at a dose of 5 mg/kg of body weight, to 12-week-old C57BL/6J mice subjected to a high-fat diet for 6 weeks. The effect of the compounds on the weight and the amount of proteins of the Soleus muscle and also the transcripts of genes involved in myogenesis were evaluated.
The amount of proteins is determined by first lysing the muscles sampled in a 0.1N NaOH solution with the FastPrep technique. The proteins are quantified by means of a colorimetric assay derived from the Lowry method.
The in vivo study is carried out by evaluating the effect of 20E as comparative compound and of the molecules according to the invention (Nos. 51 and 93) administered orally, at a dose of 5 mg/kg of body weight, to C57BL/6 mice subjected to a high-fat diet for 6 weeks. The effect of the molecules on the weight and the amount of proteins of the Soleus muscle and also the transcripts of genes involved in myogenesis were evaluated.

## CCSCC(=O)[C@H]1CC[C@@]2(O)C3=CC(=O)[C@@H]4C[C@@H](O)[C@@H](O)C[C@]4(C)C3CC[C@]12C (stereo partly drawn) [Compound 93, (2S,3R,5R,10R,13R,14S,17S)-17-(2-ethylsulfanylacetyl)-2,3,14-trihydroxy-10,13-dimethyl-2,3,4,5,9,11,12,15,16,17-decahydro-1H-cyclopenta[a]phenanthren-6-one]
[1]
  activity at 10 µM: > 130%
  activity: 130 to 140%
[2]
  amount of proteins of the Soleus muscle: significant increase

## CCC(CC)C(=O)N(CCOC)C(C)[C@H]1CC[C@@]2(O)C3=CC(=O)[C@@H]4C[C@@H](O)[C@@H](O)C[C@]4(C)C3CC[C@]12C (stereo partly drawn) [Compound 51, 2-ethyl-N-(2-methoxyethyl)-N-[1-[(2S,3R,5R,10R,13R,14S,17S)-2,3,14-trihydroxy-10,13-dimethyl-6-oxo-2,3,4,5,9,11,12,15,16,17-decahydro-1H-cyclopenta[a]phenanthren-17-yl]ethyl]butanamide]
[1]
  activity at 10 µM: 110 to 129%
  activity: ~120%
